# Patent US12065436B2, “Cardiac sarcomere inhibitors” (Cytokinetics, Inc., priority 2018, dated 2024)
# Target: bovine cardiac myofibrils (full-length cardiac myosin ATPase in the native sarcomere) (Bos taurus (Bovine), UniProt Q9BE39)
# Assay: Skinned bovine cardiac myofibril ATPase assay (PK/LDH-coupled)
# Type: biochemical
# Conditions: Ca2+ activating to 75% of maximal rate; for CDMF75 IC15: concentration giving 15% inhibition; for IC50: read-out: CDMF75 IC50
# Procedure, shortened: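 Triton-skinned bovine left-ventricle myofibrils (1 mg/mL) in PM 12 buffer (12 mM PIPES, 2 mM MgCl2, pH 6.8) with 50 μM ATP, 0.6 mM EGTA and CaCl2 set for 50% or 75% activation. Steady-state ATPase inhibition followed by PK/LDH-coupled NADH oxidation at 340 nm.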
# bovine cardiac myofibrils (full-length cardiac myosin ATPase in the native sarcomere), sequence (Q9BE39 whole entry): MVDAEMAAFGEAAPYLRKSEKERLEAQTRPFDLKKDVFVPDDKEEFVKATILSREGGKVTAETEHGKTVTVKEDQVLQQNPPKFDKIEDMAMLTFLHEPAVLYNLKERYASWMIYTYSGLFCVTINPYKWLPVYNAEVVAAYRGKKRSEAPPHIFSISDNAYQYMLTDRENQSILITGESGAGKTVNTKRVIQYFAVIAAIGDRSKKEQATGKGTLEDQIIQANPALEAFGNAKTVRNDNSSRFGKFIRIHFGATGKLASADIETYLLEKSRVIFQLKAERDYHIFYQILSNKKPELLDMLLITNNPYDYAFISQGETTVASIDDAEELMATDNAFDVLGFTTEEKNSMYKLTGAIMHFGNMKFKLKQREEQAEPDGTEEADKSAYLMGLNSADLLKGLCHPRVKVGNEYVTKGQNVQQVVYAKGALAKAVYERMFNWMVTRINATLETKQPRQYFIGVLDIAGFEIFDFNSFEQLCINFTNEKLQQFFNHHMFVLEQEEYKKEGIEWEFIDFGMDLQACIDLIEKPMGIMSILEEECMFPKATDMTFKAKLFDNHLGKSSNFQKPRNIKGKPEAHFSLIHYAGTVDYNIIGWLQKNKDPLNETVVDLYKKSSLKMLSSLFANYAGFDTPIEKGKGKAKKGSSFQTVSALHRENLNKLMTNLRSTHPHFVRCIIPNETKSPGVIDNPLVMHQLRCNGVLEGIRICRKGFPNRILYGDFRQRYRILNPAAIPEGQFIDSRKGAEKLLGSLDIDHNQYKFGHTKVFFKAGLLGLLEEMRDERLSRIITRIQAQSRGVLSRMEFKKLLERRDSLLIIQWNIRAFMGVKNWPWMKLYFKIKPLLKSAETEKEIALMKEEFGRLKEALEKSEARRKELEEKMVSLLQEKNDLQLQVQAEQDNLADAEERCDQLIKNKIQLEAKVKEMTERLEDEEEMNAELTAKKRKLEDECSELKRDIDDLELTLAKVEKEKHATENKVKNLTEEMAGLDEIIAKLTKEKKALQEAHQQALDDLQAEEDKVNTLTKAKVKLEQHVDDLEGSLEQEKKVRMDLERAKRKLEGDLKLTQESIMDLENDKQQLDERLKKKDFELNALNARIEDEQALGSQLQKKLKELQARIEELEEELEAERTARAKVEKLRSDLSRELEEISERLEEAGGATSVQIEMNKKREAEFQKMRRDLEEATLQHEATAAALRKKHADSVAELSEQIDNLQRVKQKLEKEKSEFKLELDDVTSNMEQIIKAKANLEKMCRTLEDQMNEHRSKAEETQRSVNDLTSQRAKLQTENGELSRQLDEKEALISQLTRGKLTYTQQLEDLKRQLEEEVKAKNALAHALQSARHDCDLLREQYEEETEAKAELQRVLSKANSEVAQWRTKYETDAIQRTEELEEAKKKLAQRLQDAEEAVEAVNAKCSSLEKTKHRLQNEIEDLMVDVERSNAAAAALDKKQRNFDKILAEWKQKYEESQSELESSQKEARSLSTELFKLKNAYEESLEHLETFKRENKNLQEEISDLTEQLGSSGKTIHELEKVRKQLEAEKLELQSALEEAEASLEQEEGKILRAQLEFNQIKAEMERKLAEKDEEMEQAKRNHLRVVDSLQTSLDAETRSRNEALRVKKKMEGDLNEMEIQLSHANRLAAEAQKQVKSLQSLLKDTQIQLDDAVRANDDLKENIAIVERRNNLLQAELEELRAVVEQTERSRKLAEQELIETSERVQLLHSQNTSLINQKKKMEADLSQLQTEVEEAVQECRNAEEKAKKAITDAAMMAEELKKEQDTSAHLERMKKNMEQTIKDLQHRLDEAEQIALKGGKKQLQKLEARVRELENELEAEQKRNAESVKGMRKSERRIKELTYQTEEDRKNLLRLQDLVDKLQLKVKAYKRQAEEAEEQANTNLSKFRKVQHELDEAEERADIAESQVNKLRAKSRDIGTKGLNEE
# bovine cardiac myofibrils (full-length cardiac myosin ATPase in the native sarcomere), sequence (P85100 whole entry partner): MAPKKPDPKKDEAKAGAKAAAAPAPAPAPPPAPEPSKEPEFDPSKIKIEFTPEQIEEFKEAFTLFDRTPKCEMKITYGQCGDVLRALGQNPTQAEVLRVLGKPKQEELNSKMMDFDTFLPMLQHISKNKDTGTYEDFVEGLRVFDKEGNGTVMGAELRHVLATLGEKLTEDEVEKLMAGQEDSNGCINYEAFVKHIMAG
# bovine cardiac myofibrils (full-length cardiac myosin ATPase in the native sarcomere), sequence (Q3SZE5 whole entry partner): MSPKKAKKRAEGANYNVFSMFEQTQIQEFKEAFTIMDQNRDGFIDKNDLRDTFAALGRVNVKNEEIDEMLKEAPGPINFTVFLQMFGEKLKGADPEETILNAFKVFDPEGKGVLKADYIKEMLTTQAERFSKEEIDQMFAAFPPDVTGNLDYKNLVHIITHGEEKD
SMILES,CDMF75 IC15,IC50
"O=C(N[C@@H]1CCc2cc(-c3noc(C(F)F)n3)ccc21)C1CCOC1 (stereo partly drawn) [Compound 294, N-((R)-5-(5-(difluoromethyl)-1,2,4-oxadiazol-3-yl)-2,3-dihydro-1H-inden-1-yl)tetrahydrofuran-3-carboxamide]",15.6 µM,> 39.2 µM
"CNC(=O)N[C@@H]1CCc2cc(-c3noc(C(F)F)n3)ccc21 [Compound 295, (R)-1-(5-(5-(difluoromethyl)-1,2,4-oxadiazol-3-yl)-2,3-dihydro-1H-inden-1-yl)-3-methylurea]",4.9 µM,> 39.2 µM
"CCNC(=O)N[C@@H]1CCc2cc(-c3noc(C(F)F)n3)ccc21 [Compound 296, (R)-1-(5-(5-(difluoromethyl)-1,2,4-oxadiazol-3-yl)-2,3-dihydro-1H-inden-1-yl)-3-ethylurea]",5.8 µM,> 39.2 µM
"O=C(NC1CCC1)N[C@@H]1CCc2cc(-c3noc(C(F)F)n3)ccc21 [Compound 297, (R)-1-cyclobutyl-3-(5-(5-(difluoromethyl)-1,2,4-oxadiazol-3-yl)-2,3-dihydro-1H-inden-1-yl)urea]",39.2 µM,> 39.2 µM
"O=C(NC1CCCC1)N[C@@H]1CCc2cc(-c3noc(C(F)F)n3)ccc21 [Compound 298, (R)-1-cyclopentyl-3-(5-(5-(difluoromethyl)-1,2,4-oxadiazol-3-yl)-2,3-dihydro-1H-inden-1-yl)urea]",39.2 µM,> 39.2 µM
"CN(C)C(=O)N[C@@H]1CCc2cc(-c3noc(C(F)F)n3)ccc21 [Compound 299, (R)-3-(5-(5-(difluoromethyl)-1,2,4-oxadiazol-3-yl)-2,3-dihydro-1H-inden-1-yl)-1,1-dimethylurea]",6.7 µM,30.9 µM
"O=C(N[C@@H]1CCc2cc(-c3noc(C(F)F)n3)ccc21)N1CCCC1 [Compound 300, (R)-N-(5-(5-(difluoromethyl)-1,2,4-oxadiazol-3-yl)-2,3-dihydro-1H-inden-1-yl)pyrrolidine-1-carboxamide]",12.3 µM,> 39.2 µM
"O=C(N[C@@H]1CCc2cc(-c3noc(C(F)F)n3)ccc21)N1CCOCC1 [Compound 301, (R)-N-(5-(5-(difluoromethyl)-1,2,4-oxadiazol-3-yl)-2,3-dihydro-1H-inden-1-yl)morpholine-4-carboxamide]",9.5 µM,> 39.2 µM
"CN1CCN(C(=O)N[C@@H]2CCc3cc(-c4noc(C(F)F)n4)ccc32)CC1 [Compound 302, (R)-N-(5-(5-(difluoromethyl)-1,2,4-oxadiazol-3-yl)-2,3-dihydro-1H-inden-1-yl)-4-methylpiperazine-1-carboxamide]",39.2 µM,> 39.2 µM
"O=C(N[C@@H]1CCc2cc(-c3noc(C(F)F)n3)ccc21)C1CCC1 [Compound 309, (R)-N-(5-(5-(difluoromethyl)-1,2,4-oxadiazol-3-yl)-2,3-dihydro-1H-inden-1-yl)cyclobutanecarboxamide]",39.2 µM,> 39.2 µM
"O=C1C[C@H](C(=O)N[C@@H]2CCc3cc(-c4noc(C5CC5)n4)ccc32)N1 [Compound 315, (R)-N-((R)-5-(5-cyclopropyl-1,2,4-oxadiazol-3-yl)-2,3-dihydro-1H-inden-1-yl)-4-oxoazetidine-2-carboxamide]",6.1 µM,26.4 µM
"O=C1C[C@@H](C(=O)N[C@@H]2CCc3cc(-c4noc(C5CC5)n4)ccc32)N1 [Compound 316, (S)-N-((R)-5-(5-cyclopropyl-1,2,4-oxadiazol-3-yl)-2,3-dihydro-1H-inden-1-yl)-4-oxoazetidine-2-carboxamide]",15.6 µM,> 39.2 µM
"CCC(=O)N[C@@H]1CCc2cc(-c3noc(CC)n3)ccc21 [Compound 317, (R)-N-(5-(5-ethyl-1,2,4-oxadiazol-3-yl)-2,3-dihydro-1H-inden-1-yl)propionamide]",2.7 µM,12.1 µM
"O=C(N[C@@H]1CCc2cc(-c3noc(C4CC4)n3)ccc21)OC1CCCC1 [Compound 328, cyclopentyl (R)-(5-(5-cyclopropyl-1,2,4-oxadiazol-3-yl)-2,3-dihydro-1H-inden-1-yl)carbamate]",1.2 µM,> 39.2 µM

# The next compounds have a lower IC50 than those just listed; values first:
CDMF75 IC15,IC50,SMILES
0.6 µM,2.7 µM,"COC(=O)N[C@@H]1CCc2cc(-c3noc(C)n3)ccc21 [Compound 303, methyl (R)-(5-(5-methyl-1,2,4-oxadiazol-3-yl)-2,3-dihydro-1H-inden-1-yl)carbamate]"
0.3 µM,1.2 µM,"COC(=O)N[C@@H]1CCc2cc(-c3noc(C4CC4)n3)ccc21 [Compound 305, methyl (R)-(5-(5-cyclopropyl-1,2,4-oxadiazol-3-yl)-2,3-dihydro-1H-inden-1-yl)carbamate]"
0.9 µM,3.7 µM,"COCc1nc(-c2ccc3c(c2)CC[C@H]3NC(=O)OC)no1 [Compound 306, methyl (R)-(5-(5-(methoxymethyl)-1,2,4-oxadiazol-3-yl)-2,3-dihydro-1H-inden-1-yl)carbamate]"
0.6 µM,2.9 µM,"COC(=O)N[C@@H]1CCc2cc(-c3noc(C(C)C)n3)ccc21 [Compound 307, methyl (R)-(5-(5-isopropyl-1,2,4-oxadiazol-3-yl)-2,3-dihydro-1H-inden-1-yl)carbamate]"
0.7 µM,2.8 µM,"[2H]C([2H])([2H])c1nc(-c2ccc3c(c2)CC[C@H]3NC(=O)OC)no1 [Compound 308, methyl (R)-(5-(5-(methyl-d3)-1,2,4-oxadiazol-3-yl)-2,3-dihydro-1H-inden-1-yl)carbamate]"
2.9 µM,11.3 µM,"O=C(N[C@@H]1CCc2cc(-c3noc(C(F)F)n3)ccc21)C1CC1 [Compound 310, (R)-N-(5-(5-(difluoromethyl)-1,2,4-oxadiazol-3-yl)-2,3-dihydro-1H-inden-1-yl)cyclopropanecarboxamide]"
1.8 µM,6.3 µM,"[2H]C([2H])([2H])c1noc(-c2ccc3c(c2)OC[C@H]3NC(=O)c2cnn(C)c2)n1 [Compound 311, (S)-1-methyl-N-(6-(3-(methyl-d3)-1,2,4-oxadiazol-5-yl)-2,3-dihydrobenzofuran-3-yl)-1H-pyrazole-4-carboxamide]"
0.7 µM,2.4 µM,"[2H]C([2H])([2H])c1noc(-c2ccc3c(c2)OC[C@H]3NC(=O)c2ccnn2C)n1 [Compound 312, (S)-1-methyl-N-(6-(3-(methyl-d3)-1,2,4-oxadiazol-5-yl)-2,3-dihydrobenzofuran-3-yl)-1H-pyrazole-5-carboxamide]"
1.6 µM,6.5 µM,"Cc1noc(-c2ccc3c(c2)OC[C@H]3NC(=O)c2cnn(C)c2)n1 [Compound 313, (S)-1-methyl-N-(6-(3-methyl-1,2,4-oxadiazol-5-yl)-2,3-dihydrobenzofuran-3-yl)-1H-pyrazole-4-carboxamide]"
0.7 µM,2.4 µM,"Cc1noc(-c2ccc3c(c2)OC[C@H]3NC(=O)c2ccnn2C)n1 [Compound 314, (S)-1-methyl-N-(6-(3-methyl-1,2,4-oxadiazol-5-yl)-2,3-dihydrobenzofuran-3-yl)-1H-pyrazole-5-carboxamide]"
1.3 µM,5.3 µM,"Cc1nc(-c2ccc3c(c2)CC[C@H]3NC(=O)OC2CCC2)no1 [Compound 319, cyclobutyl (R)-(5-(5-methyl-1,2,4-oxadiazol-3-yl)-2,3-dihydro-1H-inden-1-yl)carbamate]"
0.7 µM,3.1 µM,"Cc1nc(-c2ccc3c(c2)CC[C@H]3NC(=O)OCC(C)C)no1 [Compound 320, isobutyl (R)-(5-(5-methyl-1,2,4-oxadiazol-3-yl)-2,3-dihydro-1H-inden-1-yl)carbamate]"
0.4 µM,1.3 µM,"CCc1nc(-c2ccc3c(c2)CC[C@H]3NC(=O)OC2CCC2)no1 [Compound 321, cyclobutyl (R)-(5-(5-ethyl-1,2,4-oxadiazol-3-yl)-2,3-dihydro-1H-inden-1-yl)carbamate]"
0.3 µM,0.9 µM,"CCc1nc(-c2ccc3c(c2)CC[C@H]3NC(=O)OCC(C)C)no1 [Compound 322, isobutyl (R)-(5-(5-ethyl-1,2,4-oxadiazol-3-yl)-2,3-dihydro-1H-inden-1-yl)carbamate]"
0.3 µM,0.9 µM,"CCc1nc(-c2ccc3c(c2)CC[C@H]3NC(=O)OCC2CC2)no1 [Compound 323, cyclopropylmethyl (R)-(5-(5-ethyl-1,2,4-oxadiazol-3-yl)-2,3-dihydro-1H-inden-1-yl)carbamate]"
0.8 µM,3.2 µM,"CCc1nc(-c2ccc3c(c2)CC[C@H]3NC(=O)OCCOC)no1 [Compound 324, 2-methoxyethyl (R)-(5-(5-ethyl-1,2,4-oxadiazol-3-yl)-2,3-dihydro-1H-inden-1-yl)carbamate]"
0.5 µM,1.9 µM,"CCc1nc(-c2ccc3c(c2)CC[C@H]3NC(=O)OC2CCCC2)no1 [Compound 325, cyclopentyl (R)-(5-(5-ethyl-1,2,4-oxadiazol-3-yl)-2,3-dihydro-1H-inden-1-yl)carbamate]"
0.6 µM,2.4 µM,"O=C(N[C@@H]1CCc2cc(-c3noc(C4CC4)n3)ccc21)OCC1CC1 [Compound 326, cyclopropylmethyl (R)-(5-(5-cyclopropyl-1,2,4-oxadiazol-3-yl)-2,3-dihydro-1H-inden-1-yl)carbamate]"
1.8 µM,8.2 µM,"COCCOC(=O)N[C@@H]1CCc2cc(-c3noc(C4CC4)n3)ccc21 [Compound 327, 2-methoxyethyl (R)-(5-(5-cyclopropyl-1,2,4-oxadiazol-3-yl)-2,3-dihydro-1H-inden-1-yl)carbamate]"
